# Assay results published in ChEMBL document CHEMBL1201862, “PubChem BioAssay data set” (2004).
# The source made the active and inactive calls.
# Columns and labels:
# [1] = viability of uninfected HEp-2 cells – cell-based, HTS, cytotoxicity control for RSV inhibitor project, dose response (AID 2410); type: functional; conditions: human respiratory syncytial virus
# [2] = biological target: Luciferin 4-monooxygenase (Photinus pyralis, UniProt P08659); experiment: inhibition of purified Photinus pyralis luciferase – biochemical, luminescence, dose response (AID 1891)
# [3] = Luminescence Cell-Based Dose Confirmation HTS to Identify Inhibitors of Platelet Dense Granule Release. [Related pubchem assays: 1663 (Primary HTS), 1678 (Summary of Project)]; type: functional
# [4] = Luminescence Cell-Based Dose Retest to Confirm Inhibitors of Cancer Stem Cells. [Related pubchem assays (depositor defined):AID2717, AID2721]; type: functional; conditions: Homo sapiens
# [5] = biological target: T1, Polyadenylate-binding protein 1 (Homo sapiens, UniProt P11940); experiment: MLLE binding blockers, Cy5 peptide tracer – biochemical, fluorescence polarization, Cy5-PAM2 peptide, secondary, miRNA deadenylation inhibitor project, dose response (AID 602260); type: functional; conditions: read-out: IC50_Mean
# [6] = biological target: T1, Polyadenylate-binding protein 1; experiment: MLLE domain peptide-binding blockers, IC50 – biochemical, fluorescence polarization, FITC-PAM2 peptide, dose response (AID 602259); type: functional; conditions: read-out: IC50_Mean
# [7] = viability of PTEN-deleted HCT116 cells – cell-based, HCT116 PTEN knockout, dose response (AID 1047); type: functional;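 also: HCT116 colon tumor cells with PTEN knocked out; cells exposed to compound for 60 hours before readout; potency for loss of cell viability measured by luminescence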
# [8] = viability of HCT116 lacking mutant beta-catenin – cell-based, human colon tumor, dose response (AID 1045); type: functional;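 also: HCT116 colon tumor cells with beta catenin knocked out; cells exposed to compound for 60 hours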
# Nonstructural protein 1 = Nonstructural protein 1 (Influenza A virus, UniProt Q194T2); type: functional, Influenza A virus (A/California/07/2009(H1N1))
# [9] = biological target: T2, Ubiquitin-conjugating enzyme E2 N (Homo sapiens, UniProt P61088); type: functional;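 also: Dose-response confirmation in a TR-FRET assay detecting UBC13-driven polyubiquitin chain formation, inhibition measured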
# T2 sequence (P61088 whole entry): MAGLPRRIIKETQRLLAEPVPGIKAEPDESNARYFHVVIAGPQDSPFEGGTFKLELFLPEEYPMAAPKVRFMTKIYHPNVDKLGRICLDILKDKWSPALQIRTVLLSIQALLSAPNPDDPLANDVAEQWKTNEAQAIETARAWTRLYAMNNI
# INS1 = experiment: INS-1E survival protection against cytokine death – cell-based, luminescence, retest, dose response (AID 449756); type: functional; conditions: Rattus norvegicus;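 also: cell death triggered by IL-1 beta plus TNF-alpha plus IFN-gamma mixture; protective hits raise ATP signal compared with cytokine alone wells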
# [10] = reduction of Shn3 3'UTR-driven luciferase in osteoblasts – cell-based, Clone20 osteoblasts, firefly luciferase, cherry-picked, dose response (AID 624132); type: functional;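 also: firefly luciferase luminescence from reporter carrying the Shn3 3'UTR in osteoblasts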
# [11] = loss of viability in HepG2 cells – cell-based, CellTiter-Glo, cherry-picked, cytotoxicity control for Shn3 inhibitor project, dose response (AID 624134); type: functional
# [12] = non-specific 3'UTR reporter inhibition in Clone20-Shn3RL – cell-based, Renilla luciferase, cherry-picked, counter-screen for Shn3 inhibitor project, dose response (AID 624133); type: functional
# Large T antigen = Large T antigen (Simian virus 40, UniProt P03070); type: functional, Betapolyomavirus macacae;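 also: Confirmatory-stage PubChem screen for compounds that inhibit SV40 T antigen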
# [13] = Trypanosoma cruzi growth suppression in host cells – NIH3T3 host cells, beta-gal luminescence, confirmation (AID 2044); type: functional, cell-based;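 also: intracellular parasites grown in NIH/3T3 mouse fibroblasts as host cells; luminescent beta-galactosidase reporter signal from transgenic T. cruzi replicating inside host cells; inhibitors lower the luminescence signal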
# [14] = NIH3T3 cell viability loss – ATP luminescence, mouse fibroblasts, counter-screen, dose response (AID 2010); type: functional, cell-based;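 also: cells exposed to compound for about 90 hours before reading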
# [15] = biological target: T3, Heat shock factor protein 1 (Mus musculus, UniProt P38532); experiment: enhancement of HSF1-driven luciferase signal – cell-based, NIH3T3, luminescence, dose retest, confirmation (AID 435004); type: functional;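 also: stress induced by proteasome inhibitor MG132 added 30 min after compound; luciferase reporter driven by HSF1 response element in NIH3T3 cells; actives raise luminescence as potentiators of the MG132 stress response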
# T3 sequence (P38532 whole entry): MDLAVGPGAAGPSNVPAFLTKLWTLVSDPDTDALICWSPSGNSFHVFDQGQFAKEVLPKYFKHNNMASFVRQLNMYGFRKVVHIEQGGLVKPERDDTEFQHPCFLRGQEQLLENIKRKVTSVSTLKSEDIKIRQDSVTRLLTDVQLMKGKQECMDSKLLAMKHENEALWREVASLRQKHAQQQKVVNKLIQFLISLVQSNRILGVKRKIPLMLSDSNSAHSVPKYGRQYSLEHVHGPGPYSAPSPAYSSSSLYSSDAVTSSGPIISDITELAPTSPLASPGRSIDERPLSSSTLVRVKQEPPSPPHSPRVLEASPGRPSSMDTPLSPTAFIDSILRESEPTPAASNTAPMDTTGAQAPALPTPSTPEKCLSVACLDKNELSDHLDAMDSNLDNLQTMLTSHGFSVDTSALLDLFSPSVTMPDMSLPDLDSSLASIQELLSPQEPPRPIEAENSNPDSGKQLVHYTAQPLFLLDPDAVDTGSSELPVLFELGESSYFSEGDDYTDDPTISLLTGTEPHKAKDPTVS
# [16] = Luminescence Cell-Based Dose Confirmation HTS to Identify Activators of 5'UTR Stem-Loop Driven Alpha-Synuclein mRNA Translation in H4 Neuroglioblastoma Cells. [Related pubchem assays: 1829 (Project Summary), 1814 (Primary HTS)]; type: functional
# [17] = Luminescence Cell-Based Dose Response HTS to Identify Activators of Luciferase Translation or Activity in H4 […] Cells. [Related pubchem assays: 1829 (Project Summary), 1814 (Primary HTS)]; type: functional
# H4 = experiment: Luminescence Cell-Based Dose Response HTS to Identify Activators of 5'UTR Stem-Loop Driven Prion Protein mRNA Translation in H4 Neuroglioblastoma Cells. [Related pubchem assays: 1829 (Project Summary), 1814 (Primary HTS)]; type: functional; conditions: Homo sapiens
# Cytochrome P450 2D6 = Cytochrome P450 2D6 (Homo sapiens, UniProt P10635);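 also: CYP2D6 member of a cytochrome P450 panel assay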
# Cytochrome P450 2C9 = Cytochrome P450 2C9 (Homo sapiens, UniProt P11712)
# [18] = blockers of HIV-1 envelope-mediated cell-cell fusion – cherry-pick, dose response (AID 652057); type: functional, cell-based
# H9c2 = experiment: cells; type: functional, cell-based; conditions: Rattus norvegicus, H9c2, Myocardium;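 also: confirmatory concentration-response retest of ultra-high-throughput screening hits for modulation of myocardial damage; cell death induced by hydrogen peroxide oxidative stress; compound pretreatment for 60 min then peroxide exposure for 2 h; potency is for protecting the cells against peroxide damage rather than for killing them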
# Nonstructural protein 1, sequence (Q194T2 whole entry): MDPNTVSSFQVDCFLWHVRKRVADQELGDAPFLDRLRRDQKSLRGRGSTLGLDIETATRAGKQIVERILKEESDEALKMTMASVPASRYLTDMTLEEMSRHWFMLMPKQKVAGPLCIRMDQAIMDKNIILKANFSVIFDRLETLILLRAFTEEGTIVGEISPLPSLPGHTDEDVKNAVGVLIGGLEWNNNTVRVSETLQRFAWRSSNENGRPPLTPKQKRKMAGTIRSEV
# Luciferin 4-monooxygenase, sequence (P08659 whole entry): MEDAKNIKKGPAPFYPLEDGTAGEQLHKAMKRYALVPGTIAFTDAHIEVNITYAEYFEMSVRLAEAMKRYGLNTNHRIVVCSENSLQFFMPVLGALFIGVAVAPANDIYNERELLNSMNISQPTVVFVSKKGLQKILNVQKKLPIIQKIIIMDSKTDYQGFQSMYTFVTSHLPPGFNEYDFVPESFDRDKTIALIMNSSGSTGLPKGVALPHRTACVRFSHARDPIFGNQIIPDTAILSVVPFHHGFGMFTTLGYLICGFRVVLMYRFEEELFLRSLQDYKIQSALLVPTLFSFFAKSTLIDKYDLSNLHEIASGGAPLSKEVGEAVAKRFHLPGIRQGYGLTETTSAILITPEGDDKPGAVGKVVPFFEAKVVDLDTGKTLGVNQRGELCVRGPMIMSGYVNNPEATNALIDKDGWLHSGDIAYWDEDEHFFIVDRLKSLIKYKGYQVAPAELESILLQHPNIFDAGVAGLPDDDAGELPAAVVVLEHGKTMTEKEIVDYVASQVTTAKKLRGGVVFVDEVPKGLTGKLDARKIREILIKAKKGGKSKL
# T1 sequence (P11940 whole entry, the tested form may be a part): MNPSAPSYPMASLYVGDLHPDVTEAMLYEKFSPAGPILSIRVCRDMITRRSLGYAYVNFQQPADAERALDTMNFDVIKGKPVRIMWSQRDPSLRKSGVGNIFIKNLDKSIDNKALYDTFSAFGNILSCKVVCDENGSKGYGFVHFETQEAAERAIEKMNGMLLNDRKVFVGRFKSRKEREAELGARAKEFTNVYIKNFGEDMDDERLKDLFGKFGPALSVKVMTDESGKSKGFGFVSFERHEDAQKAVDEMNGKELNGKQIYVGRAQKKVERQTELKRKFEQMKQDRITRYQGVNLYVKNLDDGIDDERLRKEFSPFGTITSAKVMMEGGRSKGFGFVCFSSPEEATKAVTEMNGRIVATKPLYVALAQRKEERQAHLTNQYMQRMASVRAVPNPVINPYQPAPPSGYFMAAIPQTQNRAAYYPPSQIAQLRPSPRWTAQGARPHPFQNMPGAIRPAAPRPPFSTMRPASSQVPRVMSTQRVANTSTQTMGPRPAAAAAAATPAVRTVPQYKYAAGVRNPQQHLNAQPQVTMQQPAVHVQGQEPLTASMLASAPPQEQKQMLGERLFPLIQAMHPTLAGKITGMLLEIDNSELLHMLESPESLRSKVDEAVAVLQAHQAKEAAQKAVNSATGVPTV
# Cytochrome P450 2C9, sequence (P11712 whole entry, the tested form may be a part): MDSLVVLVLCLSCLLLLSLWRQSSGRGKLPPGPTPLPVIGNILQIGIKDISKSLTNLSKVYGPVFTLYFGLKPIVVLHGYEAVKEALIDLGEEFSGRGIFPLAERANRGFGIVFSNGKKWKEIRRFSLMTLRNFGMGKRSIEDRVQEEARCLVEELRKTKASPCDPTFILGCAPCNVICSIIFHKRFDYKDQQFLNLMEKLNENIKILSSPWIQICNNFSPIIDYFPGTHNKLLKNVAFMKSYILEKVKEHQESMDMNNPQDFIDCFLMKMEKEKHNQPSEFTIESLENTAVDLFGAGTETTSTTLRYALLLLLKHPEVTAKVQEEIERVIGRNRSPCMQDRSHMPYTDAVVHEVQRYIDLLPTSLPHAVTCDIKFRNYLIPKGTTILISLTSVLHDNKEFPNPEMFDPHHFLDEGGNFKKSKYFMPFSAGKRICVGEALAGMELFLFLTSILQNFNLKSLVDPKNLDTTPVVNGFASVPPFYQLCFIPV
# Cytochrome P450 2D6, sequence (P10635 whole entry): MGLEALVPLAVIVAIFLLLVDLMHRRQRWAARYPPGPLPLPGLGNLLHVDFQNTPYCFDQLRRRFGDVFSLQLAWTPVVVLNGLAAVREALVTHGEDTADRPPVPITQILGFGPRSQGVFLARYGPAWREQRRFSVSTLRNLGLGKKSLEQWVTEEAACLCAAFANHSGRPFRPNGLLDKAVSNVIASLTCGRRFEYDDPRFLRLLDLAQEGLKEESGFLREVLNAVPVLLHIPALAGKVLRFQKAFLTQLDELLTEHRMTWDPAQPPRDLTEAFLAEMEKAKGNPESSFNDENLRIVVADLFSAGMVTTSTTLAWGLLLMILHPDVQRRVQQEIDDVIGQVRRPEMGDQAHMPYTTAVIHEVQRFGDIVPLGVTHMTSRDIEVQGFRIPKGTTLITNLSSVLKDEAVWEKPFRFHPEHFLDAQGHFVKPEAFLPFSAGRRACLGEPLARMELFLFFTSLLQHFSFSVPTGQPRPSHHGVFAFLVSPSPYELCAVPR
# Large T antigen, sequence (P03070 whole entry): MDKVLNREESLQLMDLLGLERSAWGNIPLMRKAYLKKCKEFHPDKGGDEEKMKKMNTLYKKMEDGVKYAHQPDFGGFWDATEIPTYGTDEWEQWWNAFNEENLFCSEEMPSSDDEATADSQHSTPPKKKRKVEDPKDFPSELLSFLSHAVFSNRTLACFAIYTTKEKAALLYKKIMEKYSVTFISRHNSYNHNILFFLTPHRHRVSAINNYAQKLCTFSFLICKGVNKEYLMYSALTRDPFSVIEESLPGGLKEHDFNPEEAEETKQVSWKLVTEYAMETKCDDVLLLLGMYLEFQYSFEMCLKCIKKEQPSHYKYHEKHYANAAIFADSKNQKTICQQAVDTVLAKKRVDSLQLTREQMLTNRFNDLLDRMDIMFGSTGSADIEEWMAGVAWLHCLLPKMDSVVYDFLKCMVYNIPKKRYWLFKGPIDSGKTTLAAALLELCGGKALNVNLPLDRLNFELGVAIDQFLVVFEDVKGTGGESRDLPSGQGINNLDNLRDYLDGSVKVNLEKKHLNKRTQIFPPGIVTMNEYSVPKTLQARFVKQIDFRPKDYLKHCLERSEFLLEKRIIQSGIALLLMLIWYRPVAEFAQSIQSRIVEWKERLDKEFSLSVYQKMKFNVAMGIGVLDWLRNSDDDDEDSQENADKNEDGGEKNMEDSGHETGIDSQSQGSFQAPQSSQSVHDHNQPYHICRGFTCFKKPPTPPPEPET
smiles,measurement,setting,value
Oc1ccccc1N1CCN(c2ncnc3sc(-c4ccccc4)cc23)CC1,CC50,[1],14.2 µM (active)
same,EC50,[2],> 112 µM (not active)
same,EC50,[3],> 112 µM (not active)
same,AC50,[4],3.87 µM (active)
COc1cc(NC(S)=Nc2ccc(OC(F)F)cc2)cc(OC)c1,IC50,[5],> 66 µM (inactive)
same,IC50,[6],> 66 µM (inactive)
O=C(O)CSc1c2ccccc2cc2ccccc12,IC50,[5],> 66 µM (inactive)
same,IC50,[6],> 66 µM (inactive)
O=C(CNCCC1=CCCCC1)Nc1ccc(N2CCCCCC2)cc1,EC50,[7],15.3 µM (active)
same,EC50,[8],12.3 µM (active)
same,IC50,Nonstructural protein 1,13.8 µM (active)
CCCCCCCCC(=O)N1CCN(c2cc3c(cc2F)c(=O)c(C(=O)O)cn3CC)CC1,IC50,[9],> 20 µM (inactive)
NC(=O)c1ccsc1NC(=O)CSc1nc2ccccc2c(=O)n1CCCO,IC50,[5],> 66 µM (inactive)
same,IC50,[6],> 66 µM (inactive)
O=C(O)C1C2C=CC(C2)C1C(=O)NCc1ccco1 (stereo not given),EC50,[2],> 112 µM (not active)
same,EC50,[3],> 112 µM (not active)
COC(=O)c1sccc1N=C(S)Nc1cc(C)cc(C)c1,IC50,[5],> 66 µM (inactive)
same,IC50,[6],> 66 µM (inactive)
O=C(CCC(=O)N1CCOc2ccc(Cl)cc21)NCCCN1CCN(c2ccccc2F)CC1,IC50,[9],> 20 µM (inactive)
CCOC(=O)c1ccc(N2C(=O)CC(Sc3ncccn3)C2=O)cc1 (stereo not given),IC50,[5],> 66 µM (inactive)
same,IC50,[6],> 66 µM (inactive)
CCOc1cccc2sc(N(CCCN(C)C)C(=O)c3ccc(S(=O)(=O)N(CC)Cc4ccccc4)cc3)nc12,CC50,[1],27.7 µM (active)
same,IC50,[9],> 20 µM (inactive)
O=C(NCCSc1c[nH]c2ccccc12)c1c(F)cccc1F,EC50,[2],> 112 µM (not active)
same,EC50,[3],> 112 µM (not active)
CC(=O)c1ccc(NC(=O)c2cc[nH]n2)cc1,EC50,[2],31.4 µM (active)
same,EC50,[3],7.07 µM (active)
COn1c(C)c(C(C)=O)c2c3nonc3ccc21,EC50,[2],> 112 µM (not active)
same,EC50,[3],> 112 µM (not active)
CN(C)S(=O)(=O)c1ccc(Oc2ccc(S(=O)(=O)N(C)C)cc2)cc1,AC50,INS1,6.33 µM (active)
same,AC50,[10],3.04 µM (active)
same,AC50,[11],53.5 µM (active)
same,AC50,[12],12.1 µM (active)
O=C(CSc1ccc(-c2ccncc2)nn1)c1ccccc1,IC50,[5],> 66 µM (inactive)
same,IC50,[6],> 66 µM (inactive)
Cc1ccccc1-c1nc(CS(=O)(=O)CC(=O)N2CCc3ccccc32)c(C)o1,EC50,[2],> 112 µM (not active)
same,EC50,[3],> 112 µM (not active)
N#Cc1c(O)nc(S)nc1-c1cccc(Cl)c1,IC50,[5],> 66 µM (inactive)
same,IC50,[6],> 66 µM (inactive)
CCCc1ccc(Oc2cc(N3CCOCC3)nc(-c3ccccc3)n2)cc1,EC50,[2],> 112 µM (not active)
same,EC50,[3],> 112 µM (not active)
CCn1c(Cc2cccn2C)nnc1SCC(=O)c1ccc(C)cc1,EC50,[2],> 112 µM (not active)
same,EC50,[3],> 112 µM (not active)
CCSc1nc(N2CCCCC2)c2c(c1C#N)CCCC2,IC50,[9],> 20 µM (inactive)
COc1ccc(/C=C(/NC(=O)c2ccco2)C(=O)N2CCCCCC2)cc1OC,EC50,[2],> 112 µM (not active)
same,EC50,[3],> 112 µM (not active)
Cc1ncc(CN2CCC(N3CCC(C(=O)N4CCCC4)CC3)CC2)s1,EC50,[2],> 112 µM (not active)
same,EC50,[3],> 112 µM (not active)
NCCCC[C@@H]1NC(=O)c2cc([N+](=O)[O-])cc(I)c2SC[C@@H](C(N)=O)NC(=O)[C@H](Cc2ccc(O)cc2)NC1=O,IC50,[9],> 20 µM (inactive)
COc1ccc(C(=O)CN2CCN(S(=O)(=O)c3cccc([N+](=O)[O-])c3)CC2)cc1OC,IC50,[5],> 66 µM (inactive)
same,IC50,[6],> 66 µM (inactive)
Cc1c(N2C(=O)S/C(=C3\C(=O)Nc4ccccc43)C2=O)c(=O)n(-c2ccccc2)n1C,IC50,[5],> 66 µM (inactive)
same,IC50,[6],> 66 µM (inactive)
Cc1ccc(C(=O)Nc2nc(-c3ccccn3)cs2)cc1S(=O)(=O)N1CCOCC1,IC50,Nonstructural protein 1,7.81 µM (active)
same,AC50,INS1,1.36 µM (active)
same,AC50,[10],0.838 µM (active)
same,AC50,[11],> 70 µM (inactive)
same,AC50,[12],0.976 µM (active)
Cn1c(C(=O)NCCCN2CCN(c3cccc(Cl)c3)CC2)cc2c(=O)n(C)c3ccccc3c21,IC50,[9],> 20 µM (inactive)
O=C(CSC1=NS(=O)(=O)c2ccccc21)Nc1ccccc1,IC50,Large T antigen,12.2 µM (active)
same,IC50,[9],> 20 µM (inactive)
COc1ccc(-c2csc(CCn3nc(C)cc3C)n2)cc1OC,EC50,[2],> 112 µM (not active)
same,EC50,[3],> 112 µM (not active)
COc1ccc(CCNCc2cc(C)n(-c3ccc(OC)cc3)c2C)cc1,EC50,[13],1.85 µM (active)
same,EC50,[14],> 60 µM (not active)
same,IC50,Nonstructural protein 1,44.7 µM (active)
same,EC50,[15],> 260 µM (inactive)
COc1ccc(N=NC2C(=O)N(c3ccccc3)N=C2C)cc1 (stereo not given),IC50,Nonstructural protein 1,27.1 µM (active)
CCC(=O)NCCc1nc2ccccc2n1Cc1ccc(C)cc1,EC50,[2],> 112 µM (not active)
same,EC50,[3],> 112 µM (not active)
CCN(CC)CCNC(=O)c1ccc(NC(=O)/C=C/c2ccc3ccccc3n2)cc1,IC50,Nonstructural protein 1,> 100 µM (active)
COC(=O)C1=C(NC(=O)c2ccc(C)c(C)c2)CCS1,EC50,[16],> 120 µM (not active)
same,EC50,[17],13.3 µM (active)
same,EC50,H4,19 µM (active)
same,IC50,[5],> 66 µM (inactive)
same,IC50,[6],> 66 µM (inactive)
same,AC50,Cytochrome P450 2D6,31.6 µM (inconclusive)
same,AC50,Cytochrome P450 2C9,14.1 µM (inconclusive)
Cn1c(SCc2cccc(Br)c2)nc2ccccc2c1=O,AC50,[10],7.68 µM (active)
same,AC50,[11],59.8 µM (active)
same,AC50,[12],3.47 µM (active)
Cc1ccc(O)c(CNCCNCc2cc(C)ccc2O)c1,IC50,[9],> 20 µM (inactive)
CCC(C)(C)NC(=O)CN(C(=O)c1snc(C(N)=O)c1N)c1ccc2nc(C)sc2c1,IC50,[9],> 20 µM (inactive)
COC(=O)C1=C(C)N(Cc2ccccc2)C(NCCc2c[nH]c3ccccc23)=N[C@H]1c1cccc(F)c1,AC50,[4],6.45 µM (active)
same,IC50,[9],> 20 µM (inactive)
CC1(C(=O)NCc2ccc3c(c2)OCO3)CCN1Cc1csc2ccccc12 (stereo not given),AC50,[18],43 µM (active)
CCOc1ccccc1C(=O)N/N=C/c1cccc2cccnc12,IC50,Nonstructural protein 1,32.3 µM (active)
same,IC50,H9c2,12.4 µM (active)
Cc1ccc(S(=O)(=O)N2[C@H](c3cccc(Cl)c3)CC(=O)[C@@H]3CN(S(=O)(=O)c4ccccc4C)[C@H](c4ccc(Cl)cc4)C[C@@H]32)cc1,AC50,[10],0.289 µM (active)
same,AC50,[11],5.61 µM (active)
same,AC50,[12],0.62 µM (active)
CC=CCn1c(SCc2ccccc2)nc2c1c(=O)[nH]c(=O)n2C,IC50,[5],> 66 µM (inactive)
same,IC50,[6],> 66 µM (inactive)
C[C@H]1CN([C@@H](C)CO)C(=O)Cc2cc(N(C)C)ccc2O[C@H]1CN(C)Cc1ccc(Cl)c(Cl)c1,AC50,[18],40.2 µM (active)
Cc1c(NC(=S)N/N=C\c2ccccc2O)c(=O)n(-c2ccccc2)n1C,IC50,Nonstructural protein 1,6.13 µM (active)
